The structures appear in SMILES notation. Structures can show the parent of a compound that is named as a salt.

This test is described as follows: Free radical-scavenging/antioxidant assay (DPPH). It counts as biochemical. The settings on record: 50 μM DPPH in 80% methanol, absorbance at 520 nm, 24 h time point (steady state). The protocol: Nitrone compounds of the present invention were tested for their free-radical scavenging/antioxidant activity in an in vitro assay that was accepted by those skilled in the art as a model for conditions involving the generation of free radicals. The assay was based on a reaction between a free-radical donor, 2,2-diphenyl-1-picrylhydrazyl (DPPH), and a radical scavenger/antioxidant to be tested for free-radical scavenging activity. Upon donation of the free-radical electron to the purported radical scavenger, the peak vwasible absorbance of DPPH (515-520 nm) decreases so that optical density readings at thwas part of the vwasual spectrum reflect the progression of the following reaction: DPPH•+AH →DPPH—H+A• where AH was a hypothetical radical scavenger/antioxidant. The assay was based on a protocol originally detailed in Brand-Williams, W. et al., 1995, Use of a Free Radical Method to Evaluate Antioxidant Activity, Lebensm. Wwass. Technol., 28:25-30, with further modifications described in L. R. Fukumoto and G. Mazza, 2000, Assessing Antioxidant and Prooxidant Activities of Phenolic Compounds, J. Agric. Food Chem., 48:3597-3604.
The antioxidant assay was performed using Perkin-Elmer 96-well, clear-bottom, black-wall plates (ordered from E & K Scientific Products) and a Tecan Safire absorbance plate reader. The positive controls were Trolox (6-hydroxy-2,5,7,8-tetramethylchromane-2-carboxylic acid, Sigma-Aldrich), BHA (2(3)-tert-butylhydroquinone monomethyl ether, Sigma-Aldrich), PBN (C-(phenyl)-N-(tert-butyl)nitrone, Sigma-Aldrich) and S-PBN (C-(2-sulfophenyl)-N-(tert-butyl)nitrone, sodium salt, prepwered according to E. G. Janzen and R. V. Shetty, 1979, Tetrahedron Lett., 35: 3229-32), and the negative control (i.e., vehicle) was DMSO. In brief, 2 μL of 100×DMSO stock of the desired final concentration of each control or nitrone compound to be tested in the same batch was added to a separate well. To each well was then added 198 μL of a freshly made 50 μM DPPH (Sigma-Aldrich) solution in 80% methanol using a multi-channel pipette. The absorbance was immediately read on the plate reader at 520 nm and thereafter read periodically to assess kinetics until all reactions reached completion (i.e., steady state). Since the steady-state point was 24 h, the assay results were shown from the 24 h time point. The absorbance at 520 nm (OD) was plotted versus the concentrations of the controls and nitrone compounds to assess dose-response and interpolate the EC50 values of the controls and test compounds.
In the case of `Cc1c(C)c2c(c(C)c1O)CCC(C)(C(=O)O)O2` (stereo not drawn) [Trolox, 6-hydroxy-2,5,7,8-tetramethylchromane-2-carboxylic acid, reference compound], the EC50 was < 10 µM. `Cc1ccc(C(C)C)c(OC/C=[N+](\[O-])C2CCCCC2)c1` [Example 8, N-Cyclohexyl-C-[(2-isopropyl-5-methyl-phenoxy)methyl]nitrone] displayed an EC50 of 10 to 50 µM. `CC(C)(C)/[N+]([O-])=C/COc1ccccn1` [Example 11, N-tert-Butyl-C-(pyridin-2-yloxy)methyl nitrone] showed a concentration giving a half-maximal response (EC50) of 10 to 50 µM.

On to `CC(C/C=[N+](\[O-])C(C)(C)C)Sc1ccccc1` (stereo not drawn) [Example 22, N-tert-Butyl-C-2-(phenylsulfanyl)propyl nitrone], for which the EC50 was < 10 µM. Consider `Cc1ccc(C(C)C)c(OC/C=[N+](\[O-])C(C)(C)C)c1` [Example 7, N-tert-Butyl-C-[(2-isopropyl-5-methyl-phenoxy)methyl]nitrone], for which the concentration for a half-maximal effect (EC50) lay in the range of 50 to 100 µM. With `[O-]/[N+](=C\CCOc1ccccc1)Cc1ccccc1` [Example 19, N-Benzyl-C-2-(phenoxy)ethyl nitrone] the figure was 100 to 1000 µM.

`[O-]/[N+](=C\CCSc1ccccc1)Cc1ccccc1` [Example 21, N-Benzyl-C-2-(phenylsulfanyl)ethyl nitrone] returned an EC50 of 10 to 50 µM. Consider `COc1ccc(OC/C=[N+](\[O-])Cc2ccccc2)cc1` [Example 6, N-Benzyl-C-[(4-methoxy-phenoxy)methyl]nitrone], for which the EC50 is < 10 µM.

`Cc1ccc(SC/C=[N+](\[O-])C(C)(C)C)cc1` [Example 10, N-tert-Butyl-C-[(4-methyl-thiophenoxy)methyl]nitrone] had an EC50 of 10 to 50 µM. In turn, `CC(C/C=[N+](\[O-])C1CCCCC1)Sc1ccccc1` (stereo not drawn) [Example 23, N-Cyclohexyl-C-2-(phenylsulfanyl)propyl nitrone] displayed an EC50 of 10 to 50 µM. Turning to `[O-]/[N+](=C\COc1ccccc1)Cc1ccccc1` [Example 3, N-Benzyl-C-(phenoxymethyl)nitrone], the concentration giving a half-maximal response (EC50) lay within 10 to 50 µM. Turning to `CC(C)(C)/[N+]([O-])=C/CCSc1ccccc1` [Example 20, N-tert-Butyl-C-2-(phenylsulfanyl)ethyl nitrone], the EC50 was < 10 µM. With `CC(C)(C)/[N+]([O-])=C/CCOc1ccccc1` [Example 17, N-tert-Butyl-C-2-(phenoxy)ethyl nitrone], the EC50 is 10 to 50 µM.

`CC(C)(C)/[N+]([O-])=C/c1ccccc1` [PBN, C-(phenyl)-N-(tert-butyl)nitrone, reference compound]: the half-maximal effective concentration (EC50) was > 1000 µM. In turn, `[O-]/[N+](=C\COc1ccccc1)C1CCCCC1` [Example 2, N-Cyclohexyl-C-(phenoxymethyl)nitrone] returned an EC50 of 50 to 100 µM. With `CC(C)(C)/[N+]([O-])=C/COc1ccccc1` [Example 1, N-tert-Butyl-C-(phenoxymethyl)nitrone] the figure was 10 to 50 µM. `[O-]/[N+](=C\COCc1ccccc1)Cc1ccccc1` [Example 16, N-Benzyl-C-(benzyloxy)methyl nitrone] came in with an EC50 of 50 to 100 µM. On to `CC(C)(C)/[N+]([O-])=C/COCc1ccccc1` [Example 26, N-tert-Butyl-C-(benzyloxy)methyl nitrone], for which the EC50 was in the range of 10 to 50 µM.

For `CC(C)(C)/[N+]([O-])=C/COc1nccc2ccccc12` [Example 14], the EC50 fell in the range of 50 to 100 µM. As to `COc1ccc(OC/C=[N+](\[O-])C(C)(C)C)cc1` [Example 4, N-tert-Butyl-C-[(4-methoxy-phenoxy)methyl]nitrone], the concentration for a half-maximal effect (EC50) was 10 to 50 µM. With `COc1ccc(OC/C=[N+](\[O-])C2CCCCC2)cc1` [Example 5, N-Cyclohexyl-C-[(4-methoxy-phenoxy)methyl]nitrone] the figure was < 10 µM; with `Cc1ccc(C(C)C)c(OC/C=[N+](\[O-])Cc2ccccc2)c1` [Example 9, N-Benzyl-C-[(2-isopropyl-5-methyl-phenoxy)methyl]nitrone], 50 to 100 µM.

For `CC(C)(C)/[N+]([O-])=C/c1ccccc1S(=O)(=O)O` [SPBN, C-(2-sulfophenyl)-N-(tert-butyl)nitrone, sodium salt, reference compound], the EC50 was > 1000 µM. `[O-]/[N+](=C\COc1ccccn1)C1CCCCC1` [Example 12, N-Cyclohexyl-C-(pyridin-2-yloxy)methyl nitrone]: the 50% effective concentration (EC50) is < 10 µM. On to `[O-]/[N+](=C\CCOc1ccccc1)C1CCCCC1` [Example 18, N-Cyclohexyl-C-2-(phenoxy)ethyl nitrone], for which the EC50 was > 1000 µM. For `CC(C)(C)/[N+]([O-])=C/CCOc1ccccn1` [Example 25, N-tert-Butyl-C-2-(pyridin-2-yloxy)ethyl nitrone], the half-maximal effective concentration (EC50) lay in the range of 10 to 50 µM.

Take `[O-]/[N+](=C\COCc1ccccc1)C1CCCCC1` [Example 15, N-Cyclohexyl-C-(benzyloxy)methyl nitrone]: the EC50 was in the range of 10 to 50 µM. For `CC(C/C=[N+](\[O-])Cc1ccccc1)Sc1ccccc1` (stereo not drawn) [Example 24, N-Benzyl-C-2-(phenylsulfanyl)propyl nitrone], the EC50 was < 10 µM. Consider `[O-]/[N+](=C\COc1ccccn1)Cc1ccccc1` [Example 13, N-Benzyl-C-(pyridin-2-yloxy)methyl nitrone], for which the EC50 is < 10 µM. Take `COc1ccc(O)c(C(C)(C)C)c1` [BHA, 2(3)-tert-butylhydroquinone monomethyl ether, reference compound]: the EC50 fell in the range of 10 to 50 µM.

The values above are taken from patent US20050192281A1, “Nitrone compounds, prodrugs and pharmaceuticals compositons of the same to treat human disorders” (priority 2003, published 2005).
